Data taken from ChEMBL document CHEMBL5352391, “New structural classes of antimalarials” (Eur J Med Chem, 2022).

Experiments:
Plasmodium berghei [1] = test: Antimalarial activity against Plasmodium berghei ANKA infected in mouse assessed as reduction in parasitemia by measuring effective dose at administrated orally for 4 days by flow cytometry analysis; format: functional; conditions: 96 h, route po, time 4 day
Plasmodium berghei [2] = test: Antimalarial activity against Plasmodium berghei ANKA infected in Swiss albino mouse assessed as reduction in parasitemia at 50 micromol/kg,po administrated for 4 days by Giemsa staining based microscopic analysis; format: functional; parameters: scale not given: the % may be the effect or the level left; conditions: dose 50 µmol/kg, time 4 day
Plasmodium falciparum [3] = test: Antiplasmodial activity against chloroquine resistant Plasmodium falciparum RKL9 infected in human erythrocyte assessed as inhibition of parasite growth incubated for 24 hrs by two fold serial dilution assay; format: functional, organism-based
Plasmodium falciparum [4] = test: Antiplasmodial activity against chloroquine sensitive Plasmodium falciparum 3D7 assessed as inhibition of parasite growth incubated for 48 hrs by SYBR green I dye based fluorescence assay; format: functional, organism-based; conditions: 3D7, 48 h
[5] = Selectivity index, ratio of CC50 for cytotoxicity against human HepG2 cells by MTT assay to IC50 for antiplasmodial activity against chloroquine resistant Plasmodium falciparum W2 by SYBR green I dye based fluorescence assay; format: toxicity, cell-based; conditions: read-out: Ratio CC50/IC50
Plasmodium falciparum [6] = test: Antiplasmodial activity against chloroquine resistant Plasmodium falciparum W2 assessed as inhibition of parasite growth incubated for 48 hrs by SYBR green I dye based fluorescence assay; format: functional, organism-based; conditions: W2, 48 h
Plasmodium falciparum [7] = test: Antiplasmodial activity against Plasmodium falciparum 3D7 assessed as inhibition of parasite growth incubated for 72 hrs by LDH assay based spectrofluorometric analysis; format: functional, organism-based; conditions: 3D7, 72 h
Plasmodium falciparum [8] = test: Antiplasmodial activity against chloroquine resistant Plasmodium falciparum Dd2 assessed as inhibition of parasite growth incubated for 72 hrs by LDH assay based spectrofluorometric analysis; format: functional, organism-based; conditions: Dd2, 72 h
Plasmodium falciparum [9] = test: Antiplasmodial activity against Plasmodium falciparum TM90-C2A assessed as inhibition of parasite growth incubated for 72 hrs by SYBR Green I dye based fluorescence assay; format: functional, organism-based
Plasmodium falciparum [10] = test: Antiplasmodial activity against Plasmodium falciparum TM91-C23 assessed as inhibition of parasite growth incubated for 72 hrs by SYBR Green I dye based fluorescence assay; format: functional, organism-based; conditions: TM91-C23, 72 h
Plasmodium falciparum [11] = test: Antiplasmodial activity against Plasmodium falciparum TM90-C2B assessed as inhibition of parasite growth incubated for 72 hrs by SYBR Green I dye based fluorescence assay; format: functional, organism-based
Plasmodium falciparum [12] = test: Antiplasmodial activity against Plasmodium falciparum W2 assessed as inhibition of parasite growth incubated for 72 hrs by SYBR Green I dye based fluorescence assay; format: functional, organism-based; conditions: W2, 72 h
Plasmodium vinckei [13] = test: Antimalarial activity against Plasmodium vinckei infected in Swiss OF1 mouse assessed as reduction in parasite growth by measuring its effective dose administrated orally for four consecutive days and measured on day 5 by Giemsa staining based microscopic analysis; format: functional; conditions: 120 h, route po, time 5 day
Plasmodium vinckei [14] = test: Antimalarial activity against Plasmodium vinckei infected in Swiss OF1 mouse assessed as reduction of parasitaemia at 10 mg/kg,po administrated for four consecutive days and measured on day 5 by Giemsa staining based microscopic analysis; format: functional; parameters: scale not given: the % may be the effect or the level left; conditions: time 5 day
Plasmodium falciparum [15] = test: Antiplasmodial activity against chloroquine resistant Plasmodium falciparum K1 infected in human RBC assessed as inhibition of parasite growth incubated for 48 hrs by optical microscopy analysis; format: functional, organism-based; conditions: K1, Erythrocyte
[16] = Selectivity index, ratio of CC50 for cytotoxicity against human HepG2 cells by MTT assay to IC50 for antiplasmodial activity against chloroquine sensitive Plasmodium falciparum 3D7 by SYBR green I dye based fluorescence assay; format: toxicity, cell-based; conditions: read-out: Ratio CC50/IC50
Falcipain 2 = molecular target: T1, Falcipain 2 (Plasmodium falciparum, UniProt Q9N6S8); test: Inhibition of Plasmodium falciparum recombinant His-tagged falcipain-2 expressed in Escherichia coli assessed as inhibition constant using Cbz-Phe-Arg-AMC as substrate by fluorescence spectrophotometer assay
T1 sequence (Q9N6S8 whole entry): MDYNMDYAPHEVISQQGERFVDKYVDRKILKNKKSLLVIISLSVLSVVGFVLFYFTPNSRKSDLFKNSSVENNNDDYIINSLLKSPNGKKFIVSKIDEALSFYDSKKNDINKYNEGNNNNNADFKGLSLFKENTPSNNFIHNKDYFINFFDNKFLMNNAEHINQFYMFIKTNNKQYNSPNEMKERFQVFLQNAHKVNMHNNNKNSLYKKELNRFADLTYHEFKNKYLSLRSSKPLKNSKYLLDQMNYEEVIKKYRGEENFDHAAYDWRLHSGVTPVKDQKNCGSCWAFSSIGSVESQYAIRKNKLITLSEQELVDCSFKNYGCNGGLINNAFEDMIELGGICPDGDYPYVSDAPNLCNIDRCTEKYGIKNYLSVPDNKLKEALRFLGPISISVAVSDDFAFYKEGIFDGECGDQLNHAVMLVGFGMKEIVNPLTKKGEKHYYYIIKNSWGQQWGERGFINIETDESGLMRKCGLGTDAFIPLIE

Plasmodium falciparum [17] = test: Antimalarial activity against Plasmodium falciparum FCBR assessed as inhibition of parasite growth by SYTOX Green dye based high-throughput assay; format: functional, organism-based
Plasmodium falciparum [18] = test: Additive antiplasmodial activity against Plasmodium falciparum NF54 gametocytes infected in human erythrocyte assessed as inhibition of parasite growth by measuring minimum inhibitory concentration incubated for 48 hrs in presence of mefloquine by SYBR Green dye based fluorescence assay; format: functional
Plasmodium falciparum [19] = test: Additive antiplasmodial activity against Plasmodium falciparum NF54 gametocytes infected in human erythrocyte assessed as inhibition of parasite growth by measuring minimum inhibitory concentration incubated for 48 hrs in presence of lumefantrine by SYBR Green dye based fluorescence assay; format: functional
Plasmodium falciparum [20] = test: Additive antiplasmodial activity against Plasmodium falciparum NF54 gametocytes infected in human erythrocyte assessed as inhibition of parasite growth by measuring minimum inhibitory concentration incubated for 48 hrs in presence of chloroquine by SYBR Green dye based fluorescence assay; format: functional
Plasmodium falciparum [21] = test: Antiplasmodial activity against Plasmodium falciparum NF54 gametocytes infected in human erythrocyte assessed as inhibition of parasite growthVincubated for 48 hrs by SYBR Green dye based fluorescence assay; format: functional, organism-based

`CC(=O)N1CCN(c2ccc(CN(C(=O)/C=C/c3ccc(C(F)(F)F)cc3)[C@@H](Cc3ccccc3)C(=O)N3CCN(Cc4ccc(N(C)CCO)cc4)CC3)cc2)CC1` showed an ED90 (Plasmodium berghei [1]) of 54.4 mg/kg.

`O=C(O)c1cn(-c2ccc(Cl)cc2)nc1-c1ccccc1` gave an Activity (Plasmodium berghei [2]) of 97% and an IC50 (Plasmodium falciparum [3]) of 33 nM.

For `c1cc(CNCCCN2CCN(CCCNCc3cccc(-c4nc5ccccc5n5cccc45)c3)CC2)cc(-c2nc3ccccc3n3cccc23)c1`, the IC50 (Plasmodium falciparum [4]) was 370 nM, the selectivity ratio [5] was 40.6 and the IC50 (Plasmodium falciparum [6]) was 50 nM.

Molecule `C/C1=C\[C@H](C)[C@@H](O)C[C@@H](O)/C(C)=C/[C@H](C)C[C@@H](C)CC[C@@H]([C@@H](C)C(=O)O)OC(=O)[C@@H](C)C1` has an IC50 (Plasmodium falciparum [7]) of 128 nM and an IC50 (Plasmodium falciparum [8]) of 180 nM.

For `C/C1=C\C(=O)O[C@@H](C(C)(C)C)CCC[C@@H](O)CCC[C@H](O)CCC[C@H](O)CCC[C@@H](O)C[C@H](O)C[C@@H](O)CCC[C@H](O)CCC[C@H](O)C[C@@H](O)CCCCC1`, the IC50 (Plasmodium falciparum [9]) was 80 nM, the IC50 (Plasmodium falciparum [10]) was 270 nM and the IC50 (Plasmodium falciparum [11]) was 90 nM. It also gave an IC50 (Plasmodium falciparum [12]) of 140 nM.

`CO/N=C(/N)c1ccc(-n2cc(-c3cccc(/C(N)=N\OC)c3)nn2)cc1` showed an ED50 (Plasmodium vinckei [13]) of 5 mg/kg and an Activity (Plasmodium vinckei [14]) of 100%.

With `c1ccc(CCC2(CCc3ccccc3)OOC(CCc3ccccc3)(CCc3ccccc3)OO2)cc1` the IC50 (Plasmodium falciparum [15]) was 1600 nM.

In the case of `COc1ccc2c(c1)nc(-c1cccc(CNCCCN3CCN(CCCNCc4cccc(-c5nc6ccc(OC)cc6n6cccc56)c4)CC3)c1)c1cccn12`, the IC50 (Plasmodium falciparum [4]) is reported as 40 nM, the IC50 (Plasmodium falciparum [6]) is reported as 170 nM and the selectivity ratio [16] is reported as 39.2.

With `N=C(NC(=O)OCc1ccccc1)NC(=O)c1ccc(C(=O)NCc2ccc(NC(=O)OCc3ccccc3)cc2)o1` the Ki (Falcipain 2) was 1080 nM and the IC50 (Plasmodium falciparum [17]) was 1060 nM.

In the case of `C[n+]1c2ccccc2cc2[n-]c3ccccc3c21` [CRYPTOLEPINE], the MIC50 (Plasmodium falciparum [18]) is reported as 4.18 nM, the MIC50 (Plasmodium falciparum [19]) is reported as 1.02 nM and the MIC50 (Plasmodium falciparum [20]) is reported as 1.46 nM. The IC50 (Plasmodium falciparum [21]) was 19.6 nM.
